The text below walks through data of publication PMC8308777, “Small Molecule–Peptide Conjugates as Dimerization Inhibitors of Leishmania infantum Trypanothione Disulfide Reductase” (Pharmaceuticals, 2021).

Data set [1] concerns the target T1, Leishmania infantum trypanothione disulfide reductase (LiTryR) (Leishmania infantum, UniProt A4HSF7).
T1 construct: HIS; made in house; host or cells: E. coli BL21 (DE3) Rossetta 2
As to conditions: earlier work of the authors; cited from earlier work. The source says:
Considering that the biologically functional form of TryR is a homodimer, in 2013, we devised an alternative inhibition strategy aimed at disrupting the protein–protein interactions at the homodimer interface of Leishmania infantum TryR (LiTryR). Thus, by combining molecular modeling and site-directed mutagenesis studies, we identified and validated, for the first time, Glu436 (located at an interfacial α-helix spanning from Pro435 to Met447) as a “hotspot” for LiTryR homodimer stabilization. As a “proof of concept”, we designed and tested a small library of linear peptides [[22] ...

The conditions of data set [2]: qualitative, attributed to increased hydrophobicity of the adamantyl substituent.
The target in data set [3] is T2, HIS-FLAG-tagged LiTryR dimer (Leishmania infantum, UniProt A4HSF7).
T2 construct: made in house; host or cells: E. coli BL21 (DE3) Rossetta 2
T2 sequence (A4HSF7 entry or part of it): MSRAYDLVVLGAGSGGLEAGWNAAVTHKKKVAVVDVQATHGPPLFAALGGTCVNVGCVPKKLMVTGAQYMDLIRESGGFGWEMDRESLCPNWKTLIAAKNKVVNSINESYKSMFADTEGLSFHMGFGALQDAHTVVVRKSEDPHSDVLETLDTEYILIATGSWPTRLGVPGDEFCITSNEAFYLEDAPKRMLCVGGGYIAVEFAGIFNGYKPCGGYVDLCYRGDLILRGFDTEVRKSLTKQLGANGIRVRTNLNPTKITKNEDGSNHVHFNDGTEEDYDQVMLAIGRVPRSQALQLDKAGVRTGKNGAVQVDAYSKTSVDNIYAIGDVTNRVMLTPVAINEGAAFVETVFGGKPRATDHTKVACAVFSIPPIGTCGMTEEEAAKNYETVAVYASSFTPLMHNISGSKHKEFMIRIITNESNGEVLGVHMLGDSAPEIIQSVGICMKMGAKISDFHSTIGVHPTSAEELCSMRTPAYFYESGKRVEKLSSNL
The data set is described as follows: LiTryR dimer quantitation assay (ELISA). As to conditions: HIS-FLAG-LiTryR 400 nM, 16 h at 37 °C, Tris pH 8.0, 300 mM NaCl, compounds 25 to 3.1 μM, IC50 ± SE, three independent experiments in triplicate, SEM, read-out: IC50dim, LiTryR dimer quantitation. In kind it is biochemical. The procedure: The relative amount of the LiTryR dimeric form in the presence of the SMPCs was assessed using an enzyme-linked immunosorbent assay (ELISA), developed in our laboratory. Briefly, HIS-FLAG-tagged LiTryR (400 nM) was incubated in dimerization buffer (1 mL of 50 mM Tris pH 8.0 and 300 mM NaCl) for 16 h at 37 °C with vigorous shaking and in a humid atmosphere in the presence of the different compounds ranging from 25 to 3.1 μM. Following a 15 min centrifugation at 18,000× g and room temperature, the supernatants were added to the α-FLAG-coated plates (200 μL/well) and incubated for 30 min at 37 °C with vigorous shaking in a humid atmosphere. The plates were washed five times with TTBS buffer (2 mM Tris pH 7.6, 138 mM NaCl, and 0.1% Tween-20) and incubated with diluted monoclonal α-HIS horseradish peroxidase (HRP)-conjugated antibody (200 μL/well, 1:50,000, Abcam, Cambridge, UK) in fatty acid- and essentially globulin-free bovine serum albumin (5%) prepared in TTBS buffer for 1 h at room temperature. The plates were washed again five times and the o-phenylenediamine dihydrochloride substrate, prepared according to the manufacturer’s instructions, was added (100 μL/well). The enzymatic reactions were stopped after 5 min by addition of […] (100 μL/well) and the absorbances were measured at 490 nm in an EnSpire Multimode Plate Reader (PerkinElmer, Waltham, MA, USA).
For IC50 determinations, the absorbance values in the presence of different concentrations of inhibitor were normalized as a percentage with respect to the absorbance value in the presence of DMSO. The IC50 values were obtained by fitting these percentages to a nonlinear regression model with GraFit 6 software (Erithacus, Horley, Surrey, U.K.). The assays were carried out in triplicate and repeated three times.
For orientation: An ELISA detects its analyte on a solid surface through an enzyme-linked reagent.

Data set [4] has as its target T1, Leishmania infantum trypanothione disulfide reductase (LiTryR). The data set can be described thus: LiTryR oxidoreductase activity assay (DTNB-coupled). It is filed as biochemical. As to conditions: modified DTNB-coupled assay, 26 °C, HEPES pH 7.5, HIS-LiTryR 7 nM, TS2 1 μM, NADPH 150 μM, inhibitor 0.1-25 μM, no preincubation; IC50 ± SE, three independent experiments in triplicate; SEM; read-out: IC50act, LiTryR oxidoreductase activity. The procedure:
LiTryR oxidoreductase activity was assessed spectrophotometrically using a modified version of the DTNB-coupled assay, described by Hamilton et al.. Briefly, reactions were performed at 26 °C in 250 μL of HEPES buffer (pH 7.5, 40 mM) containing EDTA (1 mM), NADP^+ (30 μM), DTNB (25 μM), TS2 (1 μM), NADPH (150 μM), glycerol (0.02%), DMSO (1.75%), and recombinant HIS-LiTryR (7 nM). […] Reactions were started by addition of a mixture (50 μL/well) of the substrates (NADPH and TS2).
LiTryR oxidoreductase activity was monitored at 26 °C by an increase in absorbance at 412 nm in an EnSpire Multimode Plate Reader (PerkinElmer, Waltham, MA, USA). In this DTNB-coupled assay, one molecule of T(SH)2 reduces one molecule of DTNB, producing two TNB molecules. The TNB concentration was obtained by multiplying the absorbance values by 100 (50 μM TNB generates 0.5 arbitrary units of absorbance at 412 nm).
For IC50 determinations, the initial velocities were calculated from the slope of the initial linear part of the reaction curves. The initial velocities of the reaction progress curves in the presence of inhibitor (concentrations ranging from 0.1 to 25 μM) were normalized as a percentage with respect to the initial velocity in the presence of the inhibitor vehicle (DMSO). IC50 values were obtained by fitting these percentages to a nonlinear regression model with GraFit 6 software (Erithacus, Horley, Surrey, U.K.). All the assays were performed in triplicate.

T1 sequence (A4HSF7 entry or part of it): as above

With “Ac-PKIIQSVGISMKM-NH2 [TRL35, Nα-acetylated 13-mer peptide, earlier LiTryR dimerization disruptor]”, the “inhibition of the oxidoreductase activity of LiTryR” value in data set [1] is on record as “submicromolar range”.

As to `CC[C@H](C)[C@H](NC(=O)CNC(=O)[C@@H](NC(=O)[C@H](CO)NC(=O)[C@H](CCC(N)=O)NC(=O)[C@@H](NC(=O)[C@@H](NC(=O)[C@H](CCCCN)NC(=O)[C@@H]1CCCN1C(=O)COCCOCCNC(=O)CC12CC3CC(CC(C3)C1)C2)[C@@H](C)CC)[C@@H](C)CC)C(C)C)C(N)=O` [1f, Adamantyl-CH2-CO-NH-(CH2)2-O-(CH2)2-O-CH2-CO-NH-PKIIQSVGI-NH2], the solubility result in data set [2] is “decrease in solubility”. Further, the IC50 is 8.1 ± 0.2 µM in data set [3] and 7.6 ± 1.2 µM in data set [4].
